Experimental data taken from US12239647B2, “ALS treatment using induced regulatory T (iTREG) cells” (RAPA THERAPEUTICS, LLC, priority 2018, dated 2025).

Key:
[1] = test system: human CD4+ and CD8+ T cells; test: Cytokine secretion (Luminex) in extended hybrid Th2/TREG culture with temsirolimus or pemetrexed; type: cell-based; conditions: hybrid TREG-Th2 condition; temsirolimus 1.0 μM or pemetrexed 10 nM
Excerpt: (§1) FIGS. 21A-21D illustrates that extended culture of de-differentiated T cells in the hybrid Th2/TREG polarization condition results in the generation of T cells expressing with a predominant Th2 cytokine phenotype: IL-4, IL-5, and IL-13 secretion. […] At days 12, 20, and 32 of culture, the T cells were harvested, washed, and re-stimulated with 3/28 beads (3:1 ratio) for 24 hr; the resultant supernatant was harvested and tested for cytokine content by Luminex multi-analyte method. All results shown are expressed as cytokine level in pg per ml per 1×10^6 cells/ml/24 hr. The Th2 cytokine IL-10 was also evaluated: all values were less than 20 pg/ml per 1×10^6 cells/ml/24 hr.
as §1, with “22A-22D illustrate” for “21A-21D illustrates”, “IL-2, IFN-γ,” for “IL-4, IL-5,”, “GM-CSF” for “IL-13”, “inflammatory cytokines IL-17 and TNF-α were” for “Th2 cytokine IL-10 was”

CD4+ T cells = test: Flow cytometry of CD4+ T cell memory markers after de-differentiation interval; type: cell-based, human
Procedure: FIGS. 9A-9C illustrate the effect of culture components during the de-differentiation interval on CD4^+ T cell expression of memory markers (at day 13 of culture). […] After the 3-day interval, media was exchanged to fresh X-Vivo 20 without inhibitors, high-level co-stimulation was provided (3:1 bead-to-T cell ratio), and the T cell growth cytokines IL-2 (100 IU/ml) and IL-7 (10 ng/ml) were added. […] All results are shown relative to the value of CD4^+ T cells at culture initiation (last column in FIGS. 9A-9C; “Day 0 Input Value”).

[2] = test system: human CD4+ and CD8+ T cells; test: T cell yield at day 13 after de-differentiation and re-stimulation without inhibitors; type: cell-based
Procedure: After 10 days (13 days of total culture), the T cells were harvested, enumerated, and evaluated by flow cytometry. FIG. 8 illustrates the effect of culture components during the de-differentiation interval on subsequent T cell yield (at day 13 of culture). […] After the 3-day interval, media was exchanged to fresh X-Vivo 20 without inhibitors, high-level co-stimulation was provided (3:1 bead-to-T cell ratio), and the T cell growth cytokines IL-2 (100 IU/ml) and IL-7 (10 ng/ml) were added. At day 13 of culture, viable T cells were enumerated and the overall yield is shown relative to day 0 input number.

[3] = test system: human CD4+ and CD8+ T cells; test: RNA expression of T cell effector molecules after 3-day de-differentiation culture (Luminex Quantigene); type: cell-based; conditions: 3-day culture, bead:T cell 1:3, temsirolimus 1 μM, Vitamin D 0.1 or 1.0 nM; relative to control Th1/Tc1 culture
Procedure: (§2) At the end of the de-differentiation interval, cells were harvested, RNA was isolated, and RNA expression analysis was performed by Luminex Quantigene method. All results shown represent relative RNA expression, with results normalized to a value of 1.0 for the Th1/Tc1 control culture.

[4] = test system: human CD4+ and CD8+ T cells; test: Western blot for Raptor, Rictor, p70S6K and SGK1 after 3-day de-differentiation culture; type: cell-based; conditions: combination agent de-differentiation: temsirolimus 1 μM, Vitamin D 0.03 to 1.0 nM, Daclizumab 50 μg/ml; relative to control culture
Excerpt: After the 3-day culture interval, the T cells were harvested, and protein was isolated and subjected to western blot analysis for the mTORC1 complex protein, Raptor; the mTORC2 complex protein, Rictor; the post-mTORC1 protein p70S6K; the post-mTORC2 protein, SGK1; and the housekeeping gene, GAPDH.

[5] = test system: human CD4+ and CD8+ T cells; test: RNA expression of Th1 transcription factors and HIF-1-α after 3-day culture (Luminex Quantigene); type: cell-based; conditions: bead:T cell 1:3, temsirolimus 1 μM, Vitamin D 0.1 to 1.0 nM, relative to control culture
Procedure: as §2

[6] = test system: human CD4+ and CD8+ T cells; test: Western blot for mTORC1-related molecule Raptor after 3-day de-differentiation culture; type: cell-based
Excerpt: After the 3-day culture interval, the T cells were harvested, and protein was isolated and subjected to western blot analysis for the mTORC1 complex protein, Raptor, and the housekeeping gene, Actin.

CD8+ T cells = test: Flow cytometry of CD8+ T cell memory markers after de-differentiation interval; type: cell-based, human; conditions: reducing or eliminating only temsirolimus from the initial culture interval (columns #5 and 6)
Procedure: After the 3-day interval, media was exchanged to fresh X-Vivo 20 without inhibitors, high-level co-stimulation was provided (3:1 bead-to-T cell ratio), and the T cell growth cytokines IL-2 (100 IU/ml) and IL-7 (10 ng/ml) were added. T cells were subjected to flow cytometry for evaluation of co-expression of CD8^+, CD62L^+, and CCR7^+ markers (left panel; evaluated at day 10 of culture); and co-expression of CD8^+, CD62L^+, CCR7^+, and CD127^+ markers (right panel; evaluated at day 10 of culture). All results are shown relative to the value of CD8^+ T cells at culture initiation (last column in FIGS. 10A-10B; “Day 0 Input Value”).

[7] = test system: human CD4+ and CD8+ T cells; test: RNA expression of de-differentiation transcription factors and IL-7 receptor alpha after 3-day culture (Luminex Quantigene); type: cell-based; conditions: bead:T cell 1:3, temsirolimus 1 μM, relative to control culture
Procedure: as §2

CD4+ and CD8+ T cells = test: Flow cytometry of GATA3 and FOXP3 in Th2/TREG cell product after 6-day culture; type: cell-based, human; conditions: control manufacturing culture that did not include IL-4
Excerpt: After the 6-day culture, the T cells were harvested, stained for surface markers (CD4 and CD8) and intracellular molecule expression (GATA3 and FOXP3) and evaluated by flow cytometry. Results in FIGS. 26A-B show the FOXP3 and GATA3 expression for CD4+ and CD8+ T cells at the start of culture and after culture (Th2/TREG) as measured by flow cytometry. The percentages provided indicate the amount of cells considered positive for CD4+ or CD8+ and the intracellular marker (shown in boxes).

[8] = test system: human CD4+ and CD8+ T cells; test: Cytokine secretion (Luminex) after 10-day re-differentiation in polarization conditions; type: cell-based; conditions: lack of IL-4 inclusion in the T cell re-differentiation process
Excerpt: FIGS. 16A-16C illustrate that the culture of de-differentiated T cells in hybrid Th2/TReg polarization condition results in the generation of T cells with a primitive Th2 cell cytokine phenotype: as indicated by high levels of IL-2 and IL-4 secretion and a low level of IL-5 secretion. Human CD4+ and CD8^+ T cells were subjected to a 3-day de-differentiation procedure and subsequent culture in media containing variable polarization culture conditions and variable presence of pemetrexed, as described in FIG. 13. Out of the total of n=24 culture conditions, only the cultures with favorable cell yields were further evaluated; all cultures shown that contained pemetrexed (“+”) were at the concentration of 10 nM. The TREG conditions above all contained IL-2, TGF-β, and IL-4 (“TReg”) unless indicated (“TReg, No IL4”). […] All results shown are expressed as cytokine level in pg per ml per 1×10^6 cells/ml/24 hr.
FIGS. 17A-17C illustrate that the culture of de-differentiated T cells in hybrid Th2/TReg polarization condition results in the generation of T cells with a primitive Th2 cell cytokine phenotype: as indicated by low levels of IL-10, IL-13, and IL-17 secretion. […] Out of the total of n=24 culture conditions, only the cultures with favorable cell yields were further evaluated; all cultures shown that contained pemetrexed (“+”) were at the concentration of 10 nM. […] All results shown are expressed as cytokine level in pg per ml per 1×10^6 cells/ml/24 hr.
FIGS. 18A-18C illustrates that the culture of de-differentiated T cells in hybrid Th2/TREG polarization condition results in the generation of T cells with a primitive Th2 cell cytokine phenotype: as indicated by low levels of IFN-gamma, TNF-alpha, and GM-CSF secretion. […] Out of the total of n=24 culture conditions, only the cultures with favorable cell yields were further evaluated; all cultures shown that contained pemetrexed (“+”) were at the concentration of 10 nM. […] All results shown are expressed as cytokine level in pg per ml per 1×10^6 cells/ml/24 hr.

[9] = test system: human CD4+ and CD8+ T cells; test: Western blot for pro-apoptosis molecule BIM after 3-day de-differentiation culture; type: cell-based; conditions: 3-day culture, bead:T cell 1:3; Vitamin D 0.1 nM, Daclizumab 50 μg/ml
Excerpt: After the 3-day culture interval, the T cells were harvested, and protein was isolated and subjected to western blot analysis for the pro-apoptosis-related gene, BIM, and the housekeeping gene, Actin.
To assess this, we measured BIM levels in the T cells cultured with a low-strength of co-stimulation (1:3 bead-to-T cell ratio) and presence of the various inhibitors.

[10] = Vitamin D 1.0 nM in combination

With `CO[C@H]1C[C@@H]2CC[C@@H](C)[C@@](O)(O2)C(=O)C(=O)N2CCCC[C@H]2C(=O)O[C@H]([C@H](C)C[C@@H]2CC[C@@H](OC(=O)C(C)(CO)CO)[C@H](OC)C2)CC(=O)[C@H](C)/C=C(\C)[C@@H](O)[C@@H](OC)C(=O)[C@H](C)C[C@H](C)/C=C/C=C/C=C/1C` [temsirolimus] the IL-5 secretion [1] was “blunted”, the IL-13 secretion [1] was “blunted” and the “CD4+ CD45RA+ naïve T cell population” value (CD4+ T cells; elimination of temsirolimus during the initial culture interval (culture #6)) was “depletion of the naïve T cell population”. The “frequency of CD4+ triple-positive (CD62L, CCR7, CD127) T cells” value (CD4+ T cells; reducing or eliminating only temsirolimus from the initial culture interval (columns #5 and 6)) was “greatly reduced the frequency of triple-positive T cells”, the “preferable concentration for T cell yield” value ([2]; de-differentiation interval) was 1.0 µM and the “T cell yield at day 13 of culture” value ([2]; temsirolimus concentration reduced to 0.1 μM (column #7)) was “reduced the resultant T cell yield”. For the same molecule, the “Granzyme B RNA expression” value [3] was “reduction”, the “IFN-gamma RNA expression” value [3] was “reduction” and the “IL-10 RNA expression” value [3] was “reduction”. The “Rictor expression (western blot, FIG. 6)” value [4] was “effective”, the “HIF-1-α RNA expression” value [5] was “did not down-regulate” and the “STAT1 RNA expression” value [5] was “acts alone to beneficially down-regulate”. The “T-BET RNA expression” value [5] was “acts alone to beneficially down-regulate”, the “optimal dose for down-regulation of Raptor” value ([6]; combination of Vitamin D plus temsirolimus) was 1.0 µM and the Raptor expression ([6]; temsirolimus 0.3 μM (culture 9), versus 1.0 μM) was “higher levels of Raptor expression”. For the same molecule, the “frequency of CD8+ triple-positive (CD62L, CCR7, CD127) T cells” value (CD8+ T cells) was “greatly reduced the frequency of triple-positive T cells”, the “IL-7 receptor alpha RNA expression” value [7, 10] was “capable of up-regulating” and the “KLF4 RNA expression” value [7, 10] was “neither temsirolimus nor Vitamin D alone increased”. The “KLF10 RNA expression” value [7, 10] was “acts alone to beneficially up-regulate” and the “Nanog RNA expression” value ([7]; Vitamin D 0.1 or 1.0 nM) was “up-regulation”.

B1: IL-4: Th2 polarizing cytokine added to re-differentiation culture (protein, UniProt P05112 25-153, looked up)
Interleukin-4: HKCDITLQEIIKTLNSLTEQKTLCTELTVTDIFAASKNTTEKETFCRAATVLRQFYSHHEKDTRCLGATAQQFHRHKQLIRFLKRLDRNLWGLAGLNSCPVKEANQSTLENFLERLKTIMREKYSKCSS
With B1 the “frequency of GATA3-positive T cells” value (CD4+ and CD8+ T cells) was “greatly reduced frequency of GATA3-positive T cells”, the GM-CSF secretion [8] was “higher levels” and the IFN-γ secretion [8] was “higher levels”. For the same molecule, the TNF-α secretion [8] was “higher levels”.

B2: Daclizumab: anti-IL-2 receptor monoclonal antibody (antibody, chains of the INN, looked up, V domains shown)
VH: QVQLVQSGAEVKKPGSSVKVSCKASGYTFTSYRMHWVRQAPGQGLEWIGYINPSTGYTEYNQKFKDKATITADESTNTAYMELSSLRSEDTAVYYCARGGGVFDYWGQGTLVTVSS
VL: DIQMTQSPSTLSASVGDRVTITCSASSSISYMHWYQQKPGKAPKLLIYTTSNLASGVPARFSGSGSGTEFTLTISSLQPDDFATYYCHQRSTYPLTFGQGTKVEVK
B2 was tested, and the “BIM expression (western blot, normalized by actin)” value [9] was “beneficial role in suppressing”, the “Rictor expression (western blot, FIG. 6)” value [4] was “did not abrogate” and the “Raptor expression (western blot, normalized by actin)” value ([6]; 3-day culture, bead:T cell 1:3, temsirolimus 1.0 μM, Vitamin D 0.1 nM, Daclizumab 50 μg/ml) was “beneficial role in suppressing”.
